Reference: the supplement of paper PMC9663587

Key:
YKL-5-124 = compound: C=CC(=O)Nc1ccc(C(=O)Nc2[nH]nc3c2CN(C(=O)N[C@H](CN(C)C)c2ccccc2)C3(C)C)cc1 [YKL-5-124]; assay: increase in dead-cell fraction, 72 h; higher = more death;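 also: breast cancer cell lines in 384-well plates, stained with Hoechst plus LIVE/DEAD far red dye and imaged, cells above an LDR intensity threshold counted dead, Hoechst-negative corpses included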
BSJ-03-123 = compound: CC(=O)c1c(C)c2cnc(Nc3ccc(N4CCN(CCOCCOCCOCCNC(=O)COc5cccc6c5C(=O)N(C5CCC(=O)NC5=O)C6=O)CC4)cn3)nc2n(C2CCCC2)c1=O [BSJ-03-123]; assay: as above
[1] = compound: CC(=O)c1c(C)c2cnc(Nc3ccc(N4CCNCC4)cn3)nc2n(C2CCCC2)c1=O; assay: as above
[2] = compound: CCN1CCN(Cc2ccc(Nc3ncc(F)c(-c4cc(F)c5nc(C)n(C(C)C)c5c4)n3)nc2)CC1; assay: as above
Neratinib/HKI272 [3] = compound: T1, CCOc1cc2ncc(C#N)c(Nc3ccc(OCc4ccccn4)c(Cl)c3)c2cc1NC(=O)/C=C/CN(C)C [Neratinib/HKI272]; assay: as above
[4] = compound: CCc1cnn2c(NCc3ccc[n+]([O-])c3)cc(N3CCCC[C@H]3CCO)nc12; assay: as above
LEE011/Ribociclib = compound: CN(C)C(=O)c1cc2cnc(Nc3ccc(N4CCNCC4)cn3)nc2n1C1CCCC1 [LEE011/Ribociclib]; assay: as above
THZ531 = compound: CN(C)C/C=C/C(=O)Nc1ccc(C(=O)N2CCC[C@@H](Nc3ncc(Cl)c(-c4c[nH]c5ccccc45)n3)C2)cc1 [THZ531]; assay: as above
THZ1 = compound: CN(C)C/C=C/C(=O)Nc1ccc(C(=O)Nc2cccc(Nc3ncc(Cl)c(-c4c[nH]c5ccccc45)n3)c2)cc1 [THZ1]; assay: as above
Flavopiridol [5] = compound: T2, CN1CC[C@H](c2c(O)cc(O)c3c(=O)cc(-c4ccccc4Cl)oc23)[C@H](O)C1 [Flavopiridol]; assay: as above
Neratinib/HKI272 [6] = compound: T1, Neratinib/HKI272; assay: GR value, 72 h; higher = faster growth (1 = untreated, <0 = killing);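 also: breast cancer and non-malignant breast epithelial lines, nine half-log doses, viable cells counted by Hoechst and LIVE/DEAD dye imaging versus time-zero plates and DMSO controls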
Flavopiridol [7] = compound: T2, Flavopiridol; assay: as above

## HS578T
YKL-5-124; 0.001 µM
  increase in dead-cell fraction: 0.0377
YKL-5-124; 0.003162 µM
  increase in dead-cell fraction: 0.0487
YKL-5-124; 0.01 µM
  increase in dead-cell fraction: 0.0429
YKL-5-124; 0.03162 µM
  increase in dead-cell fraction: 0.127
YKL-5-124; 0.1 µM
  increase in dead-cell fraction: 0.139
YKL-5-124; 0.3162 µM
  increase in dead-cell fraction: 0.155
YKL-5-124; 1 µM
  increase in dead-cell fraction: 0.13
YKL-5-124; 3.162 µM
  increase in dead-cell fraction: 0.125
YKL-5-124; 10 µM
  increase in dead-cell fraction: 0.492
BSJ-03-123; 0.001 µM
  increase in dead-cell fraction: 0.0192
BSJ-03-123; 0.003162 µM
  increase in dead-cell fraction: 0.0459
BSJ-03-123; 0.01 µM
  increase in dead-cell fraction: 0.0053
BSJ-03-123; 0.03162 µM
  increase in dead-cell fraction: 0.0194
BSJ-03-123; 0.1 µM
  increase in dead-cell fraction: 0.0184
BSJ-03-123; 0.3162 µM
  increase in dead-cell fraction: 0.0238
BSJ-03-123; 1 µM
  increase in dead-cell fraction: 0.034
BSJ-03-123; 3.162 µM
  increase in dead-cell fraction: 0.0445
BSJ-03-123; 10 µM
  increase in dead-cell fraction: 0.267
[1]; 0.0003162 µM
  increase in dead-cell fraction: -0.0068
[1]; 0.001 µM
  increase in dead-cell fraction: 0.0083
[1]; 0.003162 µM
  increase in dead-cell fraction: 0.0012
[1]; 0.01 µM
  increase in dead-cell fraction: 0.0138
[1]; 0.03162 µM
  increase in dead-cell fraction: 0.0151
[1]; 0.1 µM
  increase in dead-cell fraction: 0.0427
[1]; 0.3162 µM
  increase in dead-cell fraction: 0.052
[1]; 1 µM
  increase in dead-cell fraction: 0.0736
[1]; 3.162 µM
  increase in dead-cell fraction: 0.116
[2]; 0.001 µM
  increase in dead-cell fraction: 0.0038
[2]; 0.003162 µM
  increase in dead-cell fraction: 0.0096
[2]; 0.01 µM
  increase in dead-cell fraction: 0.0242
[2]; 0.03162 µM
  increase in dead-cell fraction: 0.0401
[2]; 0.1 µM
  increase in dead-cell fraction: 0.0754
[2]; 0.3162 µM
  increase in dead-cell fraction: 0.0958
[2]; 1 µM
  increase in dead-cell fraction: 0.171
[2]; 3.162 µM
  increase in dead-cell fraction: 0.511
[2]; 10 µM
  increase in dead-cell fraction: 0.844
Neratinib/HKI272 [3]; 0.0003162 µM
  increase in dead-cell fraction: 0.0023
Neratinib/HKI272 [3]; 0.001 µM
  increase in dead-cell fraction: 0.0036
Neratinib/HKI272 [3]; 0.003162 µM
  increase in dead-cell fraction: 0.0026
Neratinib/HKI272 [3]; 0.01 µM
  increase in dead-cell fraction: 0.0046
Neratinib/HKI272 [3]; 0.03162 µM
  increase in dead-cell fraction: 0.0039
Neratinib/HKI272 [3]; 0.1 µM
  increase in dead-cell fraction: 0.0039
Neratinib/HKI272 [3]; 0.3162 µM
  increase in dead-cell fraction: 0.0303
Neratinib/HKI272 [3]; 1 µM
  increase in dead-cell fraction: 0.061
Neratinib/HKI272 [3]; 3.162 µM
  increase in dead-cell fraction: 0.5
[4]; 0.0001 µM
  increase in dead-cell fraction: 0.0032
[4]; 0.0003162 µM
  increase in dead-cell fraction: -0.0013
[4]; 0.001 µM
  increase in dead-cell fraction: 0.0026
[4]; 0.003162 µM
  increase in dead-cell fraction: 0.0085
[4]; 0.01 µM
  increase in dead-cell fraction: 0.187
[4]; 0.03162 µM
  increase in dead-cell fraction: 0.415
[4]; 0.1 µM
  increase in dead-cell fraction: 0.441
[4]; 0.3162 µM
  increase in dead-cell fraction: 0.423
[4]; 1 µM
  increase in dead-cell fraction: 0.443
LEE011/Ribociclib; 0.001 µM
  increase in dead-cell fraction: 0.0899
LEE011/Ribociclib; 0.003162 µM
  increase in dead-cell fraction: 0.0789
LEE011/Ribociclib; 0.01 µM
  increase in dead-cell fraction: 0.105
LEE011/Ribociclib; 0.03162 µM
  increase in dead-cell fraction: 0.0986
LEE011/Ribociclib; 0.1 µM
  increase in dead-cell fraction: 0.196
LEE011/Ribociclib; 0.3162 µM
  increase in dead-cell fraction: 0.2
LEE011/Ribociclib; 1 µM
  increase in dead-cell fraction: 0.245
LEE011/Ribociclib; 3.162 µM
  increase in dead-cell fraction: 0.248
LEE011/Ribociclib; 10 µM
  increase in dead-cell fraction: 0.243
THZ531; 0.0001 µM
  increase in dead-cell fraction: 0.0179
THZ531; 0.0003162 µM
  increase in dead-cell fraction: 0.0236
THZ531; 0.001 µM
  increase in dead-cell fraction: -0.0057
THZ531; 0.003162 µM
  increase in dead-cell fraction: 0.0346
THZ531; 0.01 µM
  increase in dead-cell fraction: -0.004
THZ531; 0.03162 µM
  increase in dead-cell fraction: 0.0086
THZ531; 0.1 µM
  increase in dead-cell fraction: 0.182
THZ531; 0.3162 µM
  increase in dead-cell fraction: 0.2
THZ531; 1 µM
  increase in dead-cell fraction: 0.283
THZ1; 0.0001 µM
  increase in dead-cell fraction: -0.0022
THZ1; 0.0003162 µM
  increase in dead-cell fraction: 0.0144
THZ1; 0.001 µM
  increase in dead-cell fraction: 0.0176
THZ1; 0.003162 µM
  increase in dead-cell fraction: -0.0036
THZ1; 0.01 µM
  increase in dead-cell fraction: 0
THZ1; 0.03162 µM
  increase in dead-cell fraction: 0.11
THZ1; 0.1 µM
  increase in dead-cell fraction: 0.174
THZ1; 0.3162 µM
  increase in dead-cell fraction: 0.216
THZ1; 1 µM
  increase in dead-cell fraction: 0.22
Flavopiridol [5]; 0.0001 µM
  increase in dead-cell fraction: 0.0048
Flavopiridol [5]; 0.0003162 µM
  increase in dead-cell fraction: -0.0091
Flavopiridol [5]; 0.001 µM
  increase in dead-cell fraction: 0.0178
Flavopiridol [5]; 0.003162 µM
  increase in dead-cell fraction: -0.0177
Flavopiridol [5]; 0.01 µM
  increase in dead-cell fraction: 0.0333
Flavopiridol [5]; 0.03162 µM
  increase in dead-cell fraction: -0.0109
Flavopiridol [5]; 0.1 µM
  increase in dead-cell fraction: 0.0094
Flavopiridol [5]; 0.3162 µM
  increase in dead-cell fraction: 0.0312
Flavopiridol [5]; 1 µM
  increase in dead-cell fraction: 0.288
Neratinib/HKI272 [6]; 0.0003162 µM
  GR value: 1.06 GR
Neratinib/HKI272 [6]; 0.001 µM
  GR value: 1 GR
Neratinib/HKI272 [6]; 0.003162 µM
  GR value: 1.05 GR
Neratinib/HKI272 [6]; 0.01 µM
  GR value: 0.98 GR
Neratinib/HKI272 [6]; 0.03162 µM
  GR value: 1 GR
Neratinib/HKI272 [6]; 0.1 µM
  GR value: 0.888 GR
Neratinib/HKI272 [6]; 0.3162 µM
  GR value: 0.613 GR
Neratinib/HKI272 [6]; 1 µM
  GR value: 0.427 GR
Neratinib/HKI272 [6]; 3.162 µM
  GR value: -0.155 GR
Flavopiridol [7]; 0.0001 µM
  GR value: 1 GR
Flavopiridol [7]; 0.0003162 µM
  GR value: 1.01 GR
Flavopiridol [7]; 0.001 µM
  GR value: 0.977 GR
Flavopiridol [7]; 0.003162 µM
  GR value: 0.969 GR
Flavopiridol [7]; 0.01 µM
  GR value: 0.95 GR
Flavopiridol [7]; 0.03162 µM
  GR value: 0.923 GR
Flavopiridol [7]; 0.1 µM
  GR value: 0.711 GR
Flavopiridol [7]; 0.3162 µM
  GR value: 0.107 GR
Flavopiridol [7]; 1 µM
  GR value: -0.265 GR
